We go through three compounds from US12115226B2, “Linker containing arylnitro, antibody-drug conjugate containing linker and use of linker” (Academy of Military Medical Sciences, priority 2018, dated 2024).

Square brackets hold non-standard residues; d marks the D form. Peptide text beside a SMILES is read from it. * marks the point of attachment. Dolaproine = CO[C@@H]([C@@H]1CCCN1)[C@@H](C)C(=O)O; Dil = CC[C@H](C)[C@H](NC)[C@@H](CC(=O)O)OC; X1 = C[C@@H](N*)[C@@H](O)c1ccccc1; NMeV = CN[C@H](C(=O)O)C(C)C

As a reminder, the IC50 is the point on the concentration scale where inhibition reaches its midpoint.

In data set [1] the test system is NCI-N87 human gastric cancer cell xenograft. Briefly: Efficacy in nude mice xenograft model of NCI-N87 human gastric cancer cell. For orientation: In xenograft studies the graft and the host belong to different species.
Protocol: The tested drug was dissolved in physiological saline and administered via tail vein injection.
The NCI-N87 gastric adenocarcinoma cells (purchased from ATCC) were cultured with DMEM medium containing inactivated 10% fetal bovine serum, 100 U/mL penicillin, 100 μg/mL streptomycin, and 2 mM glutamine in an incubator at 37° C. and 5% CO2. The initial concentration of the cultured cell was 1×10^6 cells/ml, and the cells were divided into bottles for passage every 3 to 4 days after the cells were full. The cancer cells in the logarithmic growth phase at 5×10^6 cells/0.1 mL were inoculated under skin of right lateral thorax of BALB/c nude mice (female, 6-8 weeks old, 18-22 g, purchased from Beijing Ankai Yibo Biotechnology Co., Ltd.). When the tumor grew to a volume of 150 mm^3, the modeling was successful. Then the administration was started, 6 mice in each dose group were administered at the specified dose once a week, the administration volume was 5 mL/kg, and the administration was performed 4 times in total. The tumor volume was measured twice a week by measurement of the long and short diameters of tumor with vernier caliper. The volume calculation formula was: volume=0.5×long diameter×short diameter^2. When the tumor volume was measured, the mice were weighed at the same time. The relationship between the change of mouse body weight and the time of administration was recorded. […]
The subject of data set [2] is antigen HER2-positive breast cancer cell line BT-474. Briefly: Hypoxia-dependent cytotoxicity of ADC-1 (different oxygen environments). The following applies: for IC50: Homo sapiens. The method, then: The tested cell line was antigen HER2-positive breast cancer cell line BT-474. The cell culture process was as described in Example 12, in which the oxygen concentrations in the cell incubator were separately set to 0.1%, 1.0%, 5.0%, 10.0% and 20.0%.

The subject of data set [3] is antigen HER2-positive breast cancer cell line HCC1954. The data set is described as follows: In vitro cytotoxicity of ADC (CellTiter Glo), HCC1954. Format: cell-based. The following applies: 0.1% O2, 168 hours, ADC DAR about 4. As for the experimental part:
(§1) The vial containing the target cells was gently stirred in a 37° C. water bath to be thawed.
(§2) After the content was thawed, the vial was taken out from the water bath and decontaminated by immersion or spraying with 70% ethanol.
(§3) The cells were re-suspended in the culture medium, settled and distributed into a culture flask with an area of 75 cm^2.
(§4) The resulting culture was incubated in a Galaxy® CO2 incubator (48R, #C048312044) with 5% CO2 at 37° C., and the oxygen concentration in the incubator was 0.1%.
(§5) The cells were passaged three times a week at a ratio of 1:4 in a medium containing 10% […] (heat inactivated) and 1% penicillin-streptomycin solution.
(§6) For the passaged cells, the adherent cells were firstly rinsed with trypsin/EDTA solution (3 mL), then trypsin/EDTA (3 mL, T75 flask) was added, and spun to coat the cells evenly. The resulting culture was incubated at 37° C. until the cells were detached. It was observed by microscope to verify that the cells had been detached, then an equal volume of cell culture medium was added to inactivate trypsin, the detached cells were collected, and centrifuged at 200 g for 5 minutes, and then re-suspended in a fresh culture medium. […]
(§7) The cells were harvested and counted to determine the number of cells;
A general note: In ATP-based viability assays light output follows the ATP content of the culture.

Data set [4] relates to antigen HER2-positive ovarian cancer cell line SK-OV-3. Briefly: In vitro cytotoxicity of ADC (CellTiter Glo), SK-OV-3. It is filed as cell-based. The following applies: 0.1% O2, 168 hours, ADC DAR about 4. As for the experimental part: as §1, §2, §3, §4, §5, §6, §7
Data set [5] has as its system antigen HER2-positive gastric cancer cell line NCI-N87. Briefly: In vitro cytotoxicity of ADC (CellTiter Glo), NCI-N87. Format: cell-based, human. The following applies: 0.1% O2, 168 hours, ADC DAR about 4. The method, then:
as §1, §2, §3, §4, §5, §6, §7

In data set [6] the test system is antigen HER2-positive breast cancer cell line BT-474. Briefly: In vitro cytotoxicity of ADC (CellTiter Glo), BT-474. It is filed as cell-based, human. The following applies: 0.1% O2, 168 hours, ADC DAR about 4. As for the experimental part: as §1, §2, §3, §4, §5, §6, §7
Data set [7] relates to antigen HER2-weakly positive breast cancer cell line MCF-7. The data set is described as follows: In vitro cytotoxicity of ADC (CellTiter Glo), MCF-7. It is filed as cell-based. The following applies: 0.1% O2, 168 hours, ADC DAR about 4. As for the experimental part: as §1, §2, §3, §4, §5, §6, §7
The subject of data set [8] is antigen HER2-negative breast cancer cell line MDA-MB-468. The data set is described as follows: In vitro cytotoxicity of ADC (CellTiter Glo), MDA-MB-468. The following applies: 0.1% O2, 168 hours, ADC DAR about 4. Format: cell-based. As for the experimental part: as §1, §2, §3, §4, §5, §6, §7

Turning to `CC(=O)O[C@@]12CO[C@@H]1C[C@H](O)[C@@]1(C)C(=O)[C@H](O)C3=C(C)[C@@H](OC(=O)[C@H](O)[C@@H](NC(=O)OC(C)(C)C)c4ccccc4)C[C@@](O)([C@@H](OC(=O)c4ccccc4)[C@H]21)C3(C)C` [Doxetaxel], the “P(Vehicle VS Doxetaxel), body weight” value in data set [1] worked out at 0.0422. The “body weight of animals in the course of administration and treatment” value in data set [1] (nude mice) is reported as “significant weight loss”.

With `CC[C@H](C)[C@@H]([C@@H](CC(=O)N1CCC[C@H]1[C@H](OC)[C@@H](C)C(=O)N[C@H](C)[C@@H](O)c1ccccc1)OC)N(C)C(=O)[C@@H](NC(=O)[C@H](C(C)C)N(C)C(=O)OCc1ccc(OCc2cnc([N+](=O)[O-])n2C)c(NC(=O)CNCCCCCCN2C(=O)C=CC2=O)c1)C(C)C` [L01-MMAE], the IC50 in data set [2] (BT-474, read-out: IC50, cytotoxicity to BT-474 cells, O2 0.1%) stood at 3.1 nM; in data set [2] (BT-474, read-out: IC50, cytotoxicity to BT-474 cells, O2 1.0%) it was 3.11 nM; in data set [2] (BT-474, read-out: IC50, cytotoxicity to BT-474 cells, O2 5.0%), 4.32 nM; in data set [2] (BT-474, read-out: IC50, cytotoxicity to BT-474 cells, O2 10.0%) it was 8.94 nM; in data set [2] (BT-474, read-out: IC50, cytotoxicity to BT-474 cells, O2 20.0%) it was 5.39 nM. In addition, the “increase of activity under hypoxic condition compared with normoxic condition” value in data set [2] (oxygen 0.1% versus 20%, BT-474) was around 2 times.

For the compound `CC[C@H](C)[C@@H]([C@@H](CC(=O)N1CCC[C@H]1[C@H](OC)[C@@H](C)C(=O)N[C@H](C)[C@@H](O)c1ccccc1)OC)N(C)C(=O)[C@@H](NC(=O)[C@@H](NC)C(C)C)C(C)C` [MMAE, monomethyl auristatin E] (H-[NMeV]V[Dil][Dolaproine]-X1), the IC50 in data set [3] amounted to 0.07 nM; in data set [4], 0.54 nM; in data set [5] it was 0.23 nM; in data set [6], 0.06 nM; in data set [7] it was 3.81 nM; in data set [8] it was 0.13 nM.
